For one assay, the target named is T1, Thermolysin (Bacillus thermoproteolyticus) (UniProt P00800).
T1 sequence (whole entry): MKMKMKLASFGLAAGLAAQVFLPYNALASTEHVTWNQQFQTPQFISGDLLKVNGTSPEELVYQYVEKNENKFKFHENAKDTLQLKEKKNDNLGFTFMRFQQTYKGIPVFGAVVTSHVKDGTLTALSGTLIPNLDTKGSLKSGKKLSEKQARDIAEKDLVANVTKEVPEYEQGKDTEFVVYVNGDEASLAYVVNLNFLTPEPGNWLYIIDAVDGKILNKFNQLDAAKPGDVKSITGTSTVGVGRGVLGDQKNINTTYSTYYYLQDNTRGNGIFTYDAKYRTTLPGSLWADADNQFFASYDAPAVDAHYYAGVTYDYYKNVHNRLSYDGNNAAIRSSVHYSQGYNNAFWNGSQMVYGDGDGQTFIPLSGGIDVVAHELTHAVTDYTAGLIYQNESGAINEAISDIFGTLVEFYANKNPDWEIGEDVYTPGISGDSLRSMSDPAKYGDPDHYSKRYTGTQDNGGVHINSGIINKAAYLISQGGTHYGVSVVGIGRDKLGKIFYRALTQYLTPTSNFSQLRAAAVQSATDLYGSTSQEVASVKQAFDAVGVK
Put plainly: Binding constant against thermolysin expressed as negative logarithm.
`CC(C)CC(OP(=O)(O)CNC(=O)OCc1ccccc1)C(=O)NC(Cc1ccccc1)C(=O)O` (stereo unspecified) displayed a -ln K of 9.85.

`CC(C)CC(CP(=O)(O)CNC(=O)OCc1ccccc1)C(=O)NC(C)C(=O)O` (stereo unspecified) yielded a -ln K of 17.8.

For `CC(C)CC(OP(=O)(O)CNC(=O)OCc1ccccc1)C(=O)NCC(=O)O` (stereo unspecified), the -ln K was found to be 8.38.

`CC(C)CC(OP(=O)(O)CNC(=O)OCc1ccccc1)C(=O)NC(C)C(=O)O` (stereo unspecified) returned a -ln K of 11.2.

The compound `CC(C)CC(N)C(=O)NO` (stereo unspecified) gave a -ln K of 8.57.

`CC(NC(=O)C(Cc1ccccc1)C(=O)NO)C(=O)NCCO` (stereo unspecified) returned a -ln K of 14.7.

With `CC(C)CC(NC(=O)C(CC(C)C)OP(=O)(O)CNC(=O)OCc1ccccc1)C(=O)O` (stereo unspecified), the -ln K was 11.6.

Turning to `CC(C)CC(CP(=O)(O)CNC(=O)OCc1ccccc1)C(=O)NCC(=O)O` (stereo unspecified), the -ln K was determined as 15.

System in a further assay: not listed separately
Nature of the assay: Negative logarithm of minimal inhibitory concentration against human rhinovirus 14. Type of assay: functional.
For `CC[C@H]1COC(c2ccc(OCCCCCCCc3cc(C)no3)cc2)=N1`, the “-ln (MIC)” value is reported as 17.7.

On to `Cc1cc(CCCCCCCOc2ccc(C3=NCCO3)cc2)on1` [DISOXARIL], for which the “-ln (MIC)” value is recorded as 14.3.

Take `Cc1cc(CCCCCOc2ccc(C3=NCCO3)cc2Cl)on1`: the “-ln (MIC)” value turned out to be 12.9.

On to `Cc1cc(CCCCCCCOc2ccc(C3=N[C@@H](C)CO3)cc2Cl)on1`, for which the “-ln (MIC)” value is on record as 15.4.

Take `Cc1cc(CCCCCCCOc2ccc(C3=N[C@H](C)CO3)cc2)on1`: the “-ln (MIC)” value came out at 14.7.

Take `Cc1cc(CCCCCCCOc2ccc(C3=N[C@@H](C)CO3)cc2)on1`: the “-ln (MIC)” value was determined as 17.3.

In the case of `Cc1cc(CCCCCOc2ccc(C3=N[C@@H](C)CO3)cc2)on1`, the “-ln (MIC)” value came to 14.3.

With `Cc1cc(CCCCCOc2ccc(C3=NCCO3)cc2)on1`, the “-ln (MIC)” value was 14.5.

These data come from ChEMBL document CHEMBL1126676, “On the prediction of binding properties of drug molecules by comparative molecular field analysis” (1993).
